Experimental data reported in patent US11826372B2, “Combinations including ABX196 for the treatment of cancer” (ABIVAX, priority 2016, dated 2023).
Where two headings read alike, the source gives them in different places.

Key:
Hepa 1-6 Hepatocarcinoma = settings: for Fraction alive / Fraction without detectable metastasis: Day 61, orthotopic Hepa 1-6 in C57BL/6 mice; for Tumor invasion of the liver at day 20, Dunn's multiple comparisons test vs Vehicle: Mean rank diff.: ABX196 100 ng IV D5, sorafenib 100 mg/kg PO Q1Dx21, doxorubicin 12 mg/kg IV D5, anti-PD-1 10 mg/kg IP D7/D10/D14/D17
Experimental: Tumor invasion was evaluated semi-quantitively by a visual evaluation of the percentage of tumor in the entire liver.
One million (1×106) of tumor cells in 50 μL of RPMI 1640 medium were transplanted via intra-splenic injection into 100 C57BL/6 mice. Briefly, a small left subcostal flank incision was made. Spleen was exteriorized. The spleen was exposed on the sterile gauze pad, and injected under visual control with the cell suspension with a 27-gauge needle. After the cell inoculation, the spleen was excised. The day of tumor cell injection was considered as DO.
The treatment started at D5. Ninety-nine animals (99) out of one hundred (100) were randomized according to their individual body weight into 3 groups of 13 animals and 5 groups of 12 animals using Vivo Manager® software (Biosystemes, Couternon, France). A statistical test (analysis of variance, ANOVA) was performed to test for homogeneity between groups. The treatment schedule was as follows: • Animals from group 1 received one IV injection of ABX196 vehicle at day 5, • Animals from group 2 received one daily PO administration of sorafenib at 100 mg/kg/adm for 21 consecutive days, starting at day 5, • Animals from group 3 received one IV injection of 100 ng of ABX196 on day 5 and one daily PO administration of sorafenib at 100 mg/kg/adm for 21 consecutive days, starting at day 5, • Animals from group 4 received one IV injection of Doxorubicin at 12 mg/kg on day 5, • Animals from group 5 received one IV injection of 100 ng of ABX196 and one IV injection of Doxorubicin at 12 mg/kg on day 5, • Animals from group 6 received 4 IP administrations of anti-PD-1 antibody on day 7, 10, 14 and 17 (Twice weekly×2), • Animals from group 7 received one IV injection of 100 ng of ABX196 on day 5 and 4 IP administrations of anti-PD-1 antibody on day 7, 10, 14 and 17 (Twice weekly×2).
At D19 and D20, 5 mice per group from group 1 to 8 were imaged (40 animals per day). A semi-quantitative analysis was then performed.
At the time of final mice termination (around D60), liver was weighted. The number of metastases was evaluated macroscopically and the localization, the appearance (shape, colour, consistency) and the size of each of them was recorded. Macroscopic photography of the liver was taken.
The treatment efficacy was assessed in terms of the effects of the test substance on the tumor volumes of treated animals relative to control animals. The following evaluation criteria of antitumor efficacy were determined: • Individual and/or mean (or median) measurement at D19-20 of tumor invasion within the liver using MRI imaging, • Measurement of circulating a-Fetoprotein in the plasma at D22, • Liver weight measured at termination, • Survival curves, • Median survival times.
Statistical analysis of tumor invasion between vehicle and each group at day 20.
Pair wise comparison with Dunn's test

CT-26 Colorectal Cancer = assay: Antitumor activity of ABX196 alone or with anti-PD-1 antibody in mice bearing subcutaneous CT-26 colorectal cancer (Example 6); type: in vivo, mouse; settings: CT-26 in BALB/c mice; ABX196 100 ng IV Q1Dx1; anti-PD-1 Ab 10 mg/kg IP TWx2
Experimental: Body weights were measured twice a week.

Melanoma B16F10 tumor = settings: for T/C (antitumor activity index): B16F10 in C57BL/6 mice, ABX196 100 ng i.v. or 10 ng i.t. Day 10, anti-PD-1 mAb 100 μg i.p. Days 6, 9, 12, 15 and 18
Experimental: The study was performed on a syngeneic in vivo melanoma B16F10 tumor-bearing mouse model. B16F10 tumor cells were subcutaneously inoculated in immuno-competent C57BL/6 mice.
Melanoma B16F10 tumor cells were subcutaneously inoculated at day 0 by injecting cells in the flank of 8-10 weeks-old female C57BL/6 mice, and animals were then randomly assigned into control (vehicle PBS-treated) and treatments groups.
For the anti-PD-1 antibodies treatment, mice were intraperitoneally (IP) injected with anti-PD-1 antibodies at Day 6, 9, 12, 15 and 21. Furthermore, ABX196 was administered at 1 dose, intravenously or intratumorally, with one administration at Day 10 when mean of tumor size reached 100 mm^3.
The animal pharmacological groups for anti-tumor efficacy assessment were organized as such: • Control vehicle-treated group (PBS according to anti-PD-1 treatment schedule) • Anti-PD-1-treated group (at 1 dose, intraperitoneal administration) • ABX196-treated group (at 1 dose, Intravenous (iv) administration at Day10) • Combination-treated group (ABX196 at 1 dose, Intravenous (iv) administration at Day10 in combination with anti-PD-1 antibodies at 1 dose, intraperitoneal (ip) administration) • ABX196-treated group (at 1 dose, Intratumoral (it) administration at Day10) • Combination-treated group (ABX196 at 1 dose, Intratumoral (it) administration at Day10 in combination with anti-PD-1 antibodies at 1 dose, intraperitoneal (ip) administration)
Tumor volume and body weight of the animals were measured and recorded three times per week. A tumor volume exceeding 2000 mm3 or a weight loss greater than 15% relative to the initial weight of the animal were considered as endpoints.
B16F10 cells were implanted subcutaneously in the right flank of C57BL/6 immunocompetent mice (8 week-old female). The implantation procedure was as follows (all steps were carried out under sterile laminar flow conditions):
Mice (body weight around 20 g) were anesthetized with an intraperitoneal injection of 90 μL of anesthetic (ie 1.5 mg/Kg Ketamine and Xylazine 150 μg/Kg). The cells to be implanted were resuspended in sterile PBS and the volume needed to implant was loaded in 1 ml syringe with a needle (1,000,000 cells/100 μL).
Anti-PD-1 monoclonal antibodies (a-PD-1) treatment schedule was applied, at 100 μg by i.p. injection. Treatment was repeated 4 times, at Days 6, 9, 12, 15 and 18.
ABX196 was administered at Day 10 either: • by intravenous (i.v) injection at the dose of 100 ng per mouse; or • by intratumoral (i.t) injection at the dose of 10 ng per mouse
Starting from day 6 after B16F10 cell inoculation, all experimental animal groups were monitored 3 times per week over a 4 weeks period for the following parameters: • Tumor size: measured by physical examination, 3 times per week, • Body weight: monitored 3 times per week, and • Survival: represented in a Kaplan-Meier plot.

[1] = Unpaired t test two tailed, with Welch's correction, listed as ABX196 i.t
[2] = Unpaired t test two tailed, with Welch's correction, listed as ABX196 i.v
[3] = MBT-2 in C3H/HeJ mice, ABX196 100 ng IV Q1Dx1, anti-PD-1 Ab 10 mg/kg IP TWx2

Experimental for B16-F10 melanoma: Tumor was induced by subcutaneous injection of 1×10^6 of B16-F10 cells in 200 μL of PBS buffer into the right flank of 95 C57BL/6 female animals. The day of tumor cell injection in the right flank was considered as D0.
On D3, 90 out of ninety-five 95 were then randomized according to their body weight into 6 groups each of 15 animals (groups 1-6).
The viability and behavior were recorded every day. Body weights were measured twice a week until injection of tumor cells then thrice a week. The length and width of the tumor were measured thrice a week with calipers and the volume of the tumor was estimated by the formula:
The treatment efficacy was assessed in terms of the effects of the vaccine composition on the tumor volumes of treated animals relative to control animals. The following evaluation criteria of antitumor efficacy was determined using Vivo Manager® software (Biosystemes, Couternon, France): • Individual, mean and median tumor volumes were provided, • The number of tumor-free mice was provided.
Mice survival was also monitored and used as an efficacy parameter. Survival curves were drawn.
Percent treated/control (T/C (%) index) is calculated by dividing the median treated tumor volume by the median control tumor volume on day 14 and multiplying by 100. A T/C % equal or less than 42% is considered significant antitumor activity by the drug evaluation branch of the division of cancer treatment (NCI).
Tumor growth inhibition is also reflective to the antitumor effectiveness and is calculated following the formula:
Mean tumor volumes at defined times were analyzed with the GrapadPrism Software (Version 6.07) using the Kruskall-Wallis test for all the treatments. A significant difference between all treatments (P<0.05) was followed by pairwise comparisons using the Dunn's multiple comparison test. Survival was analyzed using the Log-rank (Mantel-Cox) test with GrapadPrism Software (Version 6.07). A significant difference between all treatments (P<0.05) was followed by pairwise comparisons using the Log-rank (Mantel-Cox) test.
Experimental for MBT-2 Bladder Cancer: ABX196 was administered at the dose of 100 ng per mouse. The anti-PD-1 antibody was administered at the dose of 10 mg/kg.
MBT-2 tumors were induced by subcutaneous injection of 1×10^6 cells in 200 μL of RPMI 1640 into the right flank of sixty-eight (68) female animals.
The treatment started when the tumors reached a mean volume of 80-120 mm^3. […] A statistical test (analysis of variance, ANOVA) was performed to test for homogeneity between groups. The treatment schedule was as follows: • Animals from group 1 received an IV injection of ABX196 vehicle and an IP injection of anti-PD-1 antibody vehicle, • Animals from group 2 received an IV injection of 100 ng of ABX196, • Animals from group 3 received twice weekly administrations of anti-PD-1 antibody, • Animals from group 4 received an IV injection of 100 ng of ABX196 and twice weekly administrations of anti-PD-1 antibody.
The viability and behavior were recorded every day. Body weights were measured twice a week. The length and width of the tumor were measured twice a week with calipers and the volume of the tumor was estimated by the formula:
All statistical analyses were performed using Vivo Manager® software (Biosystemes, Couternon, France). Statistical analysis of mean body weights, MBWC, mean tumor volumes at randomization, mean tumor volumes V, mean times to reach V and mean tumor doubling times were performed using ANOVA. Pairwise tests were performed using the Bonferroni/Dunn correction in case of significant ANOVA results. The log-Rank (Kaplan-Meier) test was used to compare the survival curves. A p value <0.05 was considered as significant.

## CNC(=O)c1cc(Oc2ccc(NC(=O)Nc3ccc(Cl)c(C(F)(F)F)c3)cc2)ccn1 [Sorafenib]
Hepa 1-6 Hepatocarcinoma
  Fraction alive: 5/13
  Fraction without detectable metastasis: 5/13
Hepa 1-6 Hepatocarcinoma; MRI, day 20
  Tumor invasion of the liver at day 20, Dunn's multiple comparisons test vs Vehicle: Mean rank diff.: 8.644
Hepa 1-6 Hepatocarcinoma; MRI, day 20, vs Vehicle
  Tumor invasion of the liver at day 20, Dunn's multiple comparisons test vs Vehicle: Significant?: No
  Tumor invasion of the liver at day 20, Dunn's multiple comparisons test vs Vehicle: Summary: ns

## CCCCCCCCCCCCCCCCCCCCCCCC(=O)N[C@@H](CO[C@H]1O[C@H](CNC(C)=O)[C@H](O)[C@H](O)[C@H]1O)[C@H](O)[C@H](O)CCCCCCCCCCCCCC [ABX196]
CT-26 Colorectal Cancer
  T/C (antitumor activity index): 51
  TGI (antitumor activity index): 72
Melanoma B16F10 tumor; B16F10 bearing mice, FIGS. 5 and 6
  Effect on tumor volume (in words): transient effect
Melanoma B16F10 tumor; listed as ABX196 it
  T/C (antitumor activity index): 53
Melanoma B16F10 tumor; listed as ABX196 iv
  T/C (antitumor activity index): 51
Melanoma B16F10 tumor; Unpaired t test two tailed, with Welch's correction, vs ABX196 i.v
  Mean Tumor Volume at Day 17 (p value) vs ABX196 i.v: 0.0554
Melanoma B16F10 tumor; [1]
  Mean Tumor Volume at Day 17 (p value) vs Vehicle: 0.8942
  Mean Tumor Volume at Day 17 (p value) vs αPD-1: 0.2031
Melanoma B16F10 tumor; [2]
  Mean Tumor Volume at Day 17 (p value) vs Vehicle: 0.2838
  Mean Tumor Volume at Day 17 (p value) vs αPD-1: 0.7081
Melanoma B16F10 tumor; Unpaired t test two tailed, with Welch's correction, vs αPD-1 + ABX196 i.v
  Mean Tumor Volume at Day 17 (p value) vs αPD-1 + ABX196 i.v: <0.0001
Melanoma B16F10 tumor; vs αPD-1 + ABX196 i.v
  Mean Tumor Volume at Day 17 (Significativity) vs αPD-1 + ABX196 i.v: **** (****p < 0.0001)
MBT-2 Bladder Cancer; MBT-2, Log-Rank (Mantel-cox) test, vs ABX196 + Anti-PD-1
  Statistical analysis of mice survival, pairwise p vs ABX196 + Anti-PD-1: ***0.0002
MBT-2 Bladder Cancer; MBT-2, Log-Rank (Mantel-cox) test, vs Vehicle
  Statistical analysis of mice survival, pairwise p vs Vehicle: *0.02
MBT-2 Bladder Cancer; MBT-2 bearing mice, ABX196 100 ng IV, anti-PD-1 Ab 10 mg/kg IP TWx2
  Median Survival: 27 days
MBT-2 Bladder Cancer; [3]
  T/C (antitumor activity index): 57
  TGI (antitumor activity index): 43

## COc1cccc2c1C(=O)c1c(O)c3c(c(O)c1C2=O)C[C@@](O)(C(=O)CO)C[C@@H]3O[C@H]1C[C@H](N)[C@H](O)[C@H](C)O1 [Doxorubicin, doxorubicin]
B16-F10 melanoma; B16-F10 tumors in C57BL/6 mice, FIGS. 1 and 3
  Tumor growth in comparison to the vehicle-treated group (in words): weak and non-significant
B16-F10 melanoma; C57BL/6 mice, s.c. B16-F10 (1×10^6 cells), CL II-TRP2/ABX196 50 μg/1 μg IV D3, anti-PD-1 Ab 10 mg/kg IP D10/D14/D17/D21, doxorubicin 12 mg/kg IV D7
  Median Survival: 21 days
B16-F10 melanoma; D17, Dunn's multiple comparison test, vs TRP2-ABX196
  Statistical analysis of tumor growth at D17, pairwise comparison with TRP2-ABX196: ns
B16-F10 melanoma; D17, Dunn's multiple comparison test, vs TRP2-ABX196 + Doxo.
  Statistical analysis of tumor growth at D17, pairwise comparison with TRP2-ABX196 + Doxo.: * (*P < 0.05)
B16-F10 melanoma; D17, Dunn's multiple comparison test, vs TRP2-ABX196 + α-PD-1
  Statistical analysis of tumor growth at D17, pairwise comparison with TRP2-ABX196 + α-PD-1: ns
B16-F10 melanoma; D17, Dunn's multiple comparison test, vs Vehic.
  Statistical analysis of tumor growth at D17, pairwise comparison with Vehic.: ns
B16-F10 melanoma; D17, Dunn's multiple comparison test, vs α-PD-1
  Statistical analysis of tumor growth at D17, pairwise comparison with α-PD-1: ns
B16-F10 melanoma; D19, Dunn's multiple comparison test, vs TRP2-ABX196
  Statistical analysis of tumor growth at D19, pairwise comparison with TRP2-ABX196: ns
B16-F10 melanoma; D19, Dunn's multiple comparison test, vs TRP2-ABX196 + Doxo.
  Statistical analysis of tumor growth at D19, pairwise comparison with TRP2-ABX196 + Doxo.: * (*P < 0.05)
B16-F10 melanoma; D19, Dunn's multiple comparison test, vs TRP2-ABX196 + α-PD-1
  Statistical analysis of tumor growth at D19, pairwise comparison with TRP2-ABX196 + α-PD-1: ns
B16-F10 melanoma; D19, Dunn's multiple comparison test, vs Vehic.
  Statistical analysis of tumor growth at D19, pairwise comparison with Vehic.: ns
B16-F10 melanoma; D19, Dunn's multiple comparison test, vs α-PD-1
  Statistical analysis of tumor growth at D19, pairwise comparison with α-PD-1: ns
B16-F10 melanoma; Log-rank (Mantel-Cox) test, listed as printed as α-PD-1
  Statistical analysis of mice survival, pairwise P vs α-PD-1 (row head as printed): 0.624
B16-F10 melanoma; Log-rank (Mantel-Cox) test, vs Vehicle
  Statistical analysis of mice survival, pairwise P vs Vehicle: 0.0015
B16-F10 melanoma; day 14, median treated / median control tumor volume ×100, B16-F10 in C57BL/6 mice
  T/C (anti-tumor activity index): 56.3%
Hepa 1-6 Hepatocarcinoma
  Fraction alive: 9/12
  Fraction without detectable metastasis: 9/12
Hepa 1-6 Hepatocarcinoma; MRI, day 20
  Tumor invasion of the liver at day 20, Dunn's multiple comparisons test vs Vehicle: Mean rank diff.: 28.52
Hepa 1-6 Hepatocarcinoma; MRI, day 20, vs Vehicle
  Tumor invasion of the liver at day 20, Dunn's multiple comparisons test vs Vehicle: Significant?: Yes
